The source made the active and inactive calls. The rule behind the calls is not given here.
Tests used:
MDA-MB-231 = assay: Cytotoxicity against human MDA-MB-231 cells; type: functional, cell-based
LNCaP C4-2B [1] = assay: Cytotoxicity against human C42B cells; type: functional, cell-based
CWR22R [2] = assay: Cytotoxicity against human 22Rv1 cells; type: functional, cell-based
NCI-H446 = assay: Cytotoxicity against human H446 cells; type: functional, cell-based
MGC-803 = assay: Cytotoxicity against human MGC-803 cells; type: functional, cell-based
CWR22R [3] = assay: Inhibition of androgen receptor protein expression in human 22Rv1 cells incubated for […] by Immunoblotting analysis; type: functional, cell-based
LNCaP C4-2B [4] = assay: Inhibition of androgen receptor protein expression in human C4-2B cells incubated for […] by Immunoblotting analysis; type: functional, cell-based
LNCaP C4-2B [5] = assay: Inhibition of androgen receptor mRNA expression in human C4-2B cells incubated for […] by qRT-PCR analysis; type: functional, cell-based
RWPE-1 = assay: Cytotoxicity against human RWPE-1 cells; type: cell-based
CWR22R [6] = assay: Induction of apoptosis in human 22Rv1 cells assessed as inhibition of Cmyc protein expression at 0.15 to 0.6 uM incubated for […] by Immunoblotting analysis; type: functional, cell-based; conditions: dose 0.15-0.6 µM, time […]
LNCaP C4-2B [7] = assay: Induction of apoptosis in human C4-2B cells assessed as inhibition of Cmyc protein expression at 0.075 to 0.3 uM incubated for […] by Immunoblotting analysis; type: functional, cell-based; conditions: dose 0.075-0.3 µM
[8] = Selective index, ratio of IC50 for human RWPE1 to IC50 for human H446 cells
LNCaP C4-2B [9] = assay: Induction of cell cycle arrest in human C4-2B cells assessed as accumulation of cells at G0/G1 phase at 0.3 uM incubated for 48 hrs by RED-B-HLi fluorescence assay (reference value: 41.57%); type: functional
LNCaP C4-2B [10] = assay: Induction of cell cycle arrest in human C4-2B cells assessed as accumulation of cells at S phase at 0.3 uM incubated for 48 hrs by RED-B-HLi fluorescence assay (reference value: 42.69%); type: functional
LNCaP C4-2B [11] = assay: Induction of cell cycle arrest in human C4-2B cells assessed as accumulation of cells at G2-M phase at 0.3 uM incubated for 48 hrs by RED-B-HLi fluorescence assay (reference value: 15.74%); type: functional
LNCaP C4-2B [12] = assay: Induction of apoptosis in human C4-2B cells assessed as increase in caspase 3/7 activity at 0.3 uM after 24 hrs relative to control; type: functional, cell-based
CWR22R [13] = assay: Induction of apoptosis in human 22Rv1 cells assessed as increase in caspase 3/7 activity at 0.3 uM after 24 hrs relative to control; type: functional, cell-based
LNCaP C4-2B [14] = assay: Induction of apoptosis in human C4-2B cells assessed as increase in cleaved 7 level after 24 hrs by immunoblotting analysis relative to control; type: functional, cell-based
CWR22R [15] = assay: Induction of apoptosis in human 22Rv1 cells assessed as increase in cleaved 7 level after 24 hrs by immunoblotting analysis relative to control; type: functional, cell-based
LNCaP C4-2B [16] = assay: Induction of apoptosis in human C4-2B cells assessed as increase in cleaved PARP1 level after 24 hrs by immunoblotting analysis relative to control; type: functional, cell-based
CWR22R [17] = assay: Induction of apoptosis in human 22Rv1 cells assessed as increase in cleaved PARP1 level after 24 hrs by immunoblotting analysis relative to control; type: functional, cell-based
LNCaP C4-2B [18] = assay: Inhibition of colony formation in human C4-2B cells at 0.075 to 0.3 uM for 12 days by crystal violet staining based assay; type: functional, cell-based; conditions: dose 0.075-0.3 µM, time 12.0 day
CWR22R [19] = assay: Inhibition of colony formation in human 22Rv1 cells at 0.075 to 0.3 uM for 12 days by crystal violet staining based assay; type: functional, cell-based; conditions: dose 0.075-0.3 µM, time 12.0 day
CWR22R [20] = assay: Inhibition of androgen receptor mRNA expression in human 22Rv1 cells incubated for […] by […] analysis; type: functional, cell-based
LNCaP C4-2B [21] = assay: Induction of apoptosis in human C4-2B cells assessed as inhibition of Cyclin E protein expression at 0.075 to 0.3 uM incubated for […] by Immunoblotting analysis; type: functional, cell-based; conditions: dose 0.075-0.3 µM
CWR22R [22] = assay: Induction of apoptosis in human 22Rv1 cells assessed as inhibition of Cyclin E protein expression at 0.15 to 0.6 uM incubated for […] by Immunoblotting analysis; type: functional, cell-based; conditions: dose 0.15-0.6 µM
LNCaP C4-2B [23] = assay: Induction of apoptosis in human C4-2B cells assessed as inhibition of KLK2 mRNA expression at 0.075 to 0.3 uM incubated for […] by qRT-PCR analysis; type: functional, cell-based; conditions: dose 0.075-0.3 µM
CWR22R [24] = assay: Induction of apoptosis in human 22Rv1 cells assessed as inhibition of KLK2 mRNA expression at 0.15 to 0.6 uM incubated for […] by qRT-PCR analysis; type: functional, cell-based; conditions: dose 0.15-0.6 µM
LNCaP C4-2B [25] = assay: Induction of apoptosis in human C4-2B cells assessed as inhibition of KLK3 mRNA expression at 0.075 to 0.3 uM incubated for […] by qRT-PCR analysis; type: functional, cell-based; conditions: dose 0.075-0.3 µM
CWR22R [26] = assay: Induction of apoptosis in human 22Rv1 cells assessed as inhibition of KLK3 mRNA expression at 0.15 to 0.6 uM incubated for […] by qRT-PCR analysis; type: functional, cell-based; conditions: dose 0.15-0.6 µM
LNCaP C4-2B [27] = assay: Induction of morphological changes in human C4-2B cells assessed as decrease in cell size incubated for 24 hrs by microscopy; type: functional, cell-based
LNCaP C4-2B [28] = assay: Induction of morphological changes in human C4-2B cells assessed as increase in intracellular spaces incubated for 24 hrs by microscopy; type: functional, cell-based
[29] = Selective index, ratio of IC50 for human RWPE1 to IC50 for human LNCaP C4-2B cells; type: toxicity; conditions: RWPE1 cells and LNCaP C4-2B cells, read-out: Selectivity Index

CC[C@@H]1[C@@H](C)O[C@@](OC)([C@@H](C)[C@H](O)[C@H](C)[C@H]2OC(=O)/C=C/C=C/[C@H](C)[C@@H]([C@@H](C)[C@@H](O)[C@H](C)[C@@]3(OC)C[C@@H](OC)[C@H](CC)[C@@H](C)O3)OC(=O)/C=C/C=C/[C@@H]2C)C[C@H]1OC
IC50 (MDA-MB-231): > 40 µM
IC50 (LNCaP C4-2B [1]): > 40 µM
IC50 (CWR22R [2]): > 40 µM
IC50 (NCI-H446): > 40 µM
IC50 (MGC-803): > 40 µM

COC[C@]1(CCC(C)=C(C)C)Nc2ccc(C(=O)NC3=C(O)CCC3=O)cc2C[C@@H]1Cl
inhibition (CWR22R [3]): Active
inhibition (LNCaP C4-2B [4]): Active
inhibition (LNCaP C4-2B [5]): Active
IC50 (MDA-MB-231): 0.2 µM
IC50 (RWPE-1): 0.21 µM
Activity (CWR22R [6]): Active
Activity (LNCaP C4-2B [7]): Active
IC50 (LNCaP C4-2B [1]): 0.067 µM
IC50 (CWR22R [2]): 0.27 µM
IC50 (NCI-H446): 0.07 µM
IC50 (MGC-803): 0.11 µM
Selectivity Index [8]: 3.1
Activity (LNCaP C4-2B [9]): 56.03%
Activity (LNCaP C4-2B [10]): 24.3%
Activity (LNCaP C4-2B [11]): 19.67%
Activity (LNCaP C4-2B [12]): Active
Activity (CWR22R [13]): Active
Activity (LNCaP C4-2B [14]): Dose-Dependent Effect
Activity (CWR22R [15]): Dose-Dependent Effect
Activity (LNCaP C4-2B [16]): Dose-Dependent Effect
Activity (CWR22R [17]): Dose-Dependent Effect
inhibition (LNCaP C4-2B [18]): Active
inhibition (CWR22R [19]): Active
inhibition (CWR22R [20]): Active
Activity (LNCaP C4-2B [21]): Active
Activity (CWR22R [22]): Active
Activity (LNCaP C4-2B [23]): Active
Activity (CWR22R [24]): Active
Activity (LNCaP C4-2B [25]): Active
Activity (CWR22R [26]): Active
Activity (LNCaP C4-2B [27]): Active
Activity (LNCaP C4-2B [28]): Active

CC[C@@H](/C=C/C(=O)[C@@H](C)[C@H](O)[C@H](C)[C@H]1OC(=O)/C=C/C=C/[C@H](C)[C@@H]([C@@H](C)[C@@H](O)[C@H](C)C(=O)/C=C/[C@H](CC)[C@@H](C)O)OC(=O)/C=C/C=C/[C@@H]1C)[C@@H](C)O
IC50 (MDA-MB-231): > 40 µM
IC50 (LNCaP C4-2B [1]): 25 µM
IC50 (CWR22R [2]): > 40 µM
IC50 (NCI-H446): 25 µM
IC50 (MGC-803): > 40 µM

COC(=O)[C@@]1(O)C(OC)=C2C[C@@H](C)C[C@H](OC)[C@H](O)[C@@H](C)/C=C(\C)[C@H](OC(N)=O)[C@@H](OC)/C=C\C=C(/C)C(=O)N[C@@H]1C2=O
IC50 (MDA-MB-231): > 40 µM
IC50 (LNCaP C4-2B [1]): > 40 µM
IC50 (CWR22R [2]): > 40 µM
IC50 (NCI-H446): 2.9 µM
IC50 (MGC-803): > 40 µM

CO[C@H]1/C=C\C=C(/C)C(=O)NC2=CC(=O)C(O)=C(C[C@@H](C)C[C@H](OC)[C@H](O)[C@@H](C)/C=C(\C)[C@@H]1OC(N)=O)C2=O
IC50 (MDA-MB-231): 17 µM
IC50 (LNCaP C4-2B [1]): 11 µM
IC50 (CWR22R [2]): 25 µM
IC50 (NCI-H446): 25 µM
IC50 (MGC-803): 19 µM

COC1=C2C[C@@H](C)C[C@H](OC)[C@H](O)[C@@H](C)/C=C(\C)[C@H](OC(N)=O)[C@@H](OC)/C=C\C=C(/C)C(=O)NC(=CC1=O)C2=O [GELDANAMYCIN]
IC50 (MDA-MB-231): 1.9 µM
IC50 (RWPE-1): 3.8 µM
IC50 (LNCaP C4-2B [1]): 0.5 µM
IC50 (CWR22R [2]): 0.85 µM
IC50 (NCI-H446): 2.2 µM
IC50 (MGC-803): 3.3 µM
selectivity ratio [29]: 7.6

CNC(=O)c1ccc(N2C(=S)N(c3ccc(C#N)c(C(F)(F)F)c3)C(=O)C2(C)C)cc1F [ENZALUTAMIDE]
IC50 (RWPE-1): > 40 µM
IC50 (CWR22R [2]): 38 µM
selectivity ratio [29]: > 2.2

CC[C@@H]1[C@@H](C)O[C@@](OC)(/C(C)=C/[C@H](C)[C@H]2OC(=O)/C=C/C=C/[C@H](C)[C@@H]([C@@H](C)/C=C(\C)[C@@]3(OC)C[C@@H](OC)[C@H](CC)[C@@H](C)O3)OC(=O)/C=C/C=C/[C@@H]2C)C[C@H]1OC
IC50 (MDA-MB-231): 7.2 µM
IC50 (LNCaP C4-2B [1]): 14 µM
IC50 (CWR22R [2]): 23 µM
IC50 (NCI-H446): 25 µM
IC50 (MGC-803): 10 µM

COC1=C2C[C@@H](C)C[C@H](OC)[C@H](O)[C@@H](C)/C=C(\C)[C@H](OC(N)=O)[C@@H](OC)/C=C\C=C(/C)C(=O)NC(=C(SC)C1=O)C2=O
IC50 (MDA-MB-231): 5.2 µM
IC50 (LNCaP C4-2B [1]): 3.6 µM
IC50 (CWR22R [2]): 3.7 µM
IC50 (NCI-H446): 3.9 µM
IC50 (MGC-803): 7.9 µM

CO[C@H]1C[C@H](C)Cc2cc(O)cc(c2)NC(=O)/C(C)=C/CC[C@H](OC)[C@@H](OC(N)=O)/C(C)=C/[C@H](C)[C@H]1O
IC50 (MDA-MB-231): > 40 µM
IC50 (LNCaP C4-2B [1]): 32 µM
IC50 (CWR22R [2]): 35 µM
IC50 (NCI-H446): 28 µM
IC50 (MGC-803): > 40 µM
